From patent US20200138840A1, “PHARMACEUTICAL COMPOSITION AND TUMOR IMMUNOACTIVITY PROMOTER” (SENTAN Pharma inc., priority 2017, published 2020)

Tests used:
[1] = Side effects in Example 1: body weight, meals, blood glucose, serological profiles, liver weight; type: in vivo, nude mice (BALBc-nu/nu); details: for ALT / Fasting blood glucose / Neutral fat / Total cholesterol / Liver weight: day 21
Description: Six-week-old nude mice (male, BALBc-nu/nu mice) were subcutaneously transplanted with 1×10^7 Huh-7 cells. In order to confirm the survival and growth of the transplanted cells, the measurement of tumor size was carried out using a pair of vernier calipers. At the time point when the tumors in the mice had reached a volume of from 100 to 150 mm^3, the mice were divided into the following six groups.
In each of the groups, the tumor volume and the body weight of the mice were measured every 3 days from the start of administration. At the time points of 7 days, 14 days and 21 days after the start of administration, the average amount of meals taken per day was calculated from the amount of meals taken in the previous week. […] Further, 21 days after the start of administration, the tumors were observed, blood was collected from the mice in accordance with a conventional method, and the livers were removed from the mice. The serological profiles of the collected blood samples were measured using SPOTCHEM (trademark) EZ SP-4430 system (manufactured by Arkray, Inc.). In addition, the weight of the removed livers was measured.

[2] = Side effects in Example 3: body weight, meals, blood glucose, serological profiles, liver weight; type: in vivo, nude mice; details: day 21
Description: Nude mice subcutaneously transplanted with Huh-7 cells, prepared in the same manner as in Example 1, were divided in the following six groups.
In each of the groups, the tumor volume and the body weight of the mice were measured in the same manner as in Example 1, and the average amount of meals taken per day was calculated.

Hepatoma cell line Huh-7 = experiment: Anticancer effect of 2DG in nude mice subcutaneously transplanted with hepatoma cell line (Example 1); type: in vivo, nude mice (BALBc-nu/nu); details: for tumor volume over time (FIG. 2): combination with sorafenib 5 mg/kg/day orally
Description: The Hepatoma cell line Huh-7 (obtained from Cell Resource Center for Biomedical Research, Cell Bank, Institute of Development, Aging and Cancer, National University Corporation Tohoku University) to be transplanted to the mice was cultured at 37° C. using a 5% CO2 incubator. Dulbecco's modified Eagle's medium (DMEM) containing 10% fetal bovine serum was used as the medium for culturing Huh-7 cells. Six-week-old nude mice (male, BALBc-nu/nu mice) were subcutaneously transplanted with 1×10^7 Huh-7 cells. In order to confirm the survival and growth of the transplanted cells, the measurement of tumor size was carried out using a pair of vernier calipers. […] (a) Control group: 200 μL of PBS was administered intraperitoneally every day. […] At the time points of 7 days, 14 days and 21 days after the start of administration, the average amount of meals taken per day was calculated from the amount of meals taken in the previous week. […] Further, 21 days after the start of administration, the tumors were observed, blood was collected from the mice in accordance with a conventional method, and the livers were removed from the mice. The serological profiles of the collected blood samples were measured using SPOTCHEM (trademark) EZ SP-4430 system (manufactured by Arkray, Inc.). In addition, the weight of the removed livers was measured.

CD3 positive T cells = experiment: Immunostaining of liver tumor tissue with CD3 antibody (Example 10); type: in vivo, STAM mice (C57BL6/N); details: 2DG 100 mg/kg/day i.p. every day; high dose 2DG-PLGA 200 μL of 100 mg/mL once a week
Description: Further, the immunostaining of the liver tumor tissue was carried out using a rabbit monoclonal CD3 antibody (manufactured by GeneTex, Inc.).

[3] = cited from earlier work
[4] = 2DG 100 mg/kg/day into jugular vein once a week
[5] = 2DG 100 mg/kg/day intraperitoneally every day
[6] = high dose 2DG 1,000 mg/kg/day i.p. (alone or with sorafenib 5 mg/kg/day orally)
[7] = low dose 2DG 100 mg/kg/day i.p. (alone or with sorafenib 5 mg/kg/day orally)
[8] = high dose 2DG 1,000 mg/kg/day i.p., day 14 after start

In the case of `CNC(=O)c1cc(Oc2ccc(NC(=O)Nc3ccc(Cl)c(C(F)(F)F)c3)cc2)ccn1` [Sorafenib, sorafenib], the ALT ([1]; sorafenib 5 mg/kg/day orally) is reported as 35.0 ± 10.3 mg/dL, the Fasting blood glucose ([1]; sorafenib 5 mg/kg/day orally) is reported as 84.8 ± 11.8 mg/dL and the Neutral fat ([1]; sorafenib 5 mg/kg/day orally) is reported as 95.2 ± 35.7 mg/dL. It also gave a Total cholesterol ([1]; sorafenib 5 mg/kg/day orally) of 120.4 ± 17.8 mg/dL.

`O=CC[C@@H](O)[C@H](O)[C@H](O)CO` [2DG, 2-Deoxy-D-glucose] gave an ALT [2, 4] of 49 ± 20.9 U/L, a Fasting blood glucose [2, 4] of 73.8 ± 14.0 mg/dL and a Liver weight [2, 4] of 1.10 ± 0.19 g. For the same compound, the Neutral fat [2, 4] was 67.6 ± 28.5 mg/dL, the Total cholesterol [2, 4] was 115.4 ± 10.1 mg/dL and the ALT [2, 5] was 38.6 ± 23.5 U/L. For the same compound, the Fasting blood glucose [2, 5] was 83.2 ± 38.2 mg/dL, the Liver weight [2, 5] was 1.35 ± 0.19 g and the Total cholesterol [2, 5] was 113.8 ± 25.3 mg/dL. For the same compound, the “size of the tumors (appearance, FIG. 1)” value (Hepatoma cell line Huh-7; 21 days after start, 2DG i.p. every day, sorafenib 5 mg/kg/day orally) was “decreased the size of the tumors”, the “tumor volume over time (FIG. 2)” value (Hepatoma cell line Huh-7; high dose 2DG 1,000 mg/kg/day i.p. every day) was “significant decrease in the tumor volume in a dose-dependent manner” and the “tumor volume over time (FIG. 2)” value (Hepatoma cell line Huh-7; low dose 2DG 100 mg/kg/day i.p. every day) was “significant decrease in the tumor volume in a dose-dependent manner”. The “infiltration of T cells into the interior of tumors (FIG. 29)” value (CD3 positive T cells) was “increased infiltration of T cells”, the Fasting blood glucose [1, 6] was 77.2 ± 28.0 mg/dL and the Liver weight [1, 6] was 1.10 ± 0.1 g. It also gave a Total cholesterol [1, 6] of 110.8 ± 23.6 mg/dL, an ALT [1, 7] of 34.8 ± 16.2 mg/dL and a Fasting blood glucose [1, 7] of 79.0 ± 10.9 mg/dL. It also gave a Liver weight [1, 7] of 1.21 ± 0.1 g, a Neutral fat [1, 7] of 103.2 ± 24.7 mg/dL and a Total cholesterol [1, 7] of 122.6 ± 19.8 mg/dL. The “blood glucose level after administration (FIG. 5)” value [1, 8] was “marked increase in the blood glucose level”, the consciousness after administration [1, 8] was “disturbance of consciousness was observed” and the side-effects ([3]; dose of from 63 to 88 mg/kg) was “severe side-effects such as gastrointestinal bleeding, long QT syndrome and hyperglycemia were observed”. The tolerated dose ([3]; phase 1 clinical trial, oral administration, combined with docetaxel) was at most 63 mg/kg.
